Test results: ChEMBL document CHEMBL5385878, “Synthesis and structure-activity optimization of 7-azaindoles containing aza-β-amino acids targeting the influenza PB2 subunit” (Eur J Med Chem, 2023)
The source made the active and inactive calls. No cut-off for these calls is given here.

System: Influenza A virus
Assay: Antiviral activity against Influenza A/WSN/33 harboring H275Y mutant at 0.3 uM
Format: functional, organism-based

CC(C)(C)N(CC(=O)O)Nc1nc(-c2c[nH]c3ncc(F)cc23)ncc1F
Activity: Active
